# Experimental data taken from patent US12011443B2, “Pharmaceutical composition for preventing or treating nonalcoholic steatohepatitis” (J2H BIOTECH INC., priority 2018, dated 2024).
# Key:
# [1] = tested on: non-alcoholic steatohepatitis C57BL/6 mouse model induced by the methionine and choline deficient (MCD) diet; test: Non-alcoholic steatohepatitis treatment model (MCD diet), 6 weeks repeated oral administration; assay type: in vivo, C57BL/6 mice; conditions: for LDL level (blood biochemical test) / oil red O staining area level: p<0.01
# Text: The MCD model, which is an animal model of steatohepatitis, was used. C57BL/6 mice were supplied with a MCD (methionine-choline deficient) diet for 5 days, followed by a normal diet for 2 days. In this way, for 10 weeks, the MCD diet and normal diet were alternately supplied. Animals were identified using tail marks during the acclimatization period (blue), dosing and observation period (red). Individual identification cards, distinguished by color, were attached to the breeding box, and an animal room usage record was attached to the entrance of the breeding room.
# During the acclimatization period, blood biochemical tests and body weight measurements were performed. Mice were randomly distributed so that the average of each group was distributed as uniformly as possible according to the ranked ALT and body weight levels. [10 animals in the normal feed group (G1), 40 animals in the MCD diet group (G2-G5)]
# The improvement effect that appeared when the test compound was repeatedly administered for 6 weeks to the non-alcoholic steatohepatitis C57BL/6 mouse model induced over 10 weeks with the MCD diet was evaluated. Test compound was administered once a day for 6 weeks. As a positive control, obeticholic acid (hereinafter referred to as OCA), which is currently undergoing a phase 3 clinical trial with non-alcoholic steatohepatitis as an indication, was used.
# In the case of a control compound (obeticholic acid, 10 mg/kg/day), an appropriate amount was weighed and then diluted in sterile distilled water and administered. In the case of the test compound, after weighing the appropriate amount, it was diluted with 0.5 wt % methyl cellulose aqueous solution to which 1 wt % Tween 80 was added. During oral administration, the weight of the mouse was measured, and the animals were fixed using the cervical skin fixation method, and each test compound was administered using a sonde for oral administration.
# It was measured at the start of administration, and once a week and on the day of autopsy after the start of administration.
# It was measured right before the start of administration, and once a week after the start of administration of the test compound. As for the measurement method, the remaining amount of feed was measured per unit of breeding box next day after quantitative feeding, the difference was calculated, and the average intake per mouse was calculated.
# The following items were tested using a blood biochemical analyzer (7180 Hitachi, Japan) with blood collected and separated at right before and the 6th week (the day of autopsy) after administration of the test compound.
# Six weeks after administration of the test compound: ALT (alanine transaminase), AST (aspartate transaminase), TG (triglyceride), TCHO (total cholesterol), HDL (high-density lipoprotein), LDL (low-density lipoprotein), GGT (Gamma-glutamyltransferase), LDH (Lactate dehydrogenase)
# On the day of autopsy, pimonidazole was diluted in saline at a concentration of 30 mg/ml, and then administered intravenously at a dose of 60 mg/kg. Animals were euthanized 90 minutes after administration. At each autopsy, the animals were inhaled with ether, and when anesthesia was confirmed, blood was collected from the posterior vena cava using a syringe. Thereafter, the abdominal aorta and posterior vena cava were cut, bleeding, and killed. Blood was injected into a vacutainer tube containing a clot activator, allowed to stand at room temperature for about 15 minutes to coagulate, and then centrifuged at 3,000 rpm for 10 minutes to separate the serum. Serum was stored in a deep freezer set at −70° C. or lower before analysis, and was used for blood biochemical tests.
# At autopsy, the liver was excised and weighed, the right lobe of the liver was fixed in 10% neutral buffered formalin solution, and the left lobe was divided into half and rapidly frozen using liquid nitrogen. The quick-frozen specimens were stored in a cryogenic freezer set at −70° C. or lower until ELISA analysis. […]
# [2] = tested on: non-alcoholic steatohepatitis prevention model, MCD feed, mice (C57BL/6); test: Non-alcoholic steatohepatitis prevention model (MCD feed with simultaneous administration for 12 weeks); assay type: in vivo; conditions: 12 weeks with MCD feed, vs vehicle control group (G2)
# Description: The efficacy of the test compound for preventing non-alcoholic steatohepatitis was evaluated. Using 7-week-old mice (C57BL/6), the normal group (G1) was supplied with general feed, and the vehicle control group (G2), positive control group (G3), and test groups (G4, G5) were supplied with the MCD feed for 12 weeks. Simultaneously with the MCD diet, test compounds and controls were administered orally once a day. Mice were divided into five groups, and a total of 75 mice, 15 mice per each group, were used for the experiment.
# In order to evaluate the prophylactic efficacy, the test compound was administered for 12 weeks at the same time as induction with the MCD diet, and the efficacy of the test compound for the prevention of steatohepatitis was evaluated.
# Each appropriate amount of the control compound (Obeticholic acid, 10 mg/kg/day) and the test compound was weighed, and then diluted in 0.5 wt % methyl cellulose aqueous solution to which 1 wt % Tween 80 was added. During oral administration, the weight of the mouse was measured, and the animals were fixed using the cervical skin fixation method, and each test substance was administered using a sonde for oral administration. […]
# [3] = Tissue concentration after oral administration to the mouse; assay type: in vivo; conditions: 2 hours after oral administration
# [4] = single administration and combined administration with metformin; cited from earlier work
# [5] = clinical trials; cited from earlier work
# [6] = 10 mg/kg/day (G4), vs vehicle control group (G2)
# [7] = 30 mg/kg/day (G5), vs vehicle control group (G2)
smiles,measurement,setting,value
"C[C@@H]1CN(c2ccc(S(C)(=O)=O)cc2F)CCN1c1nccc(C(=O)N[C@H]2C3CC4CC2C[C@](O)(C4)C3)n1 [Chemical Formula 1, 2-((R)-4-(2-fluoro-4-(methylsulfonyl)phenyl)-2-methylpiperazin-1-yl)-N-((1R,2s,3S,5S,7S)-5-hydroxyadamantan-2-yl)pyrimidine-4-carboxamide]",ALT level (blood biochemical test),"[1]; 10 mg/kg/day (G3, G4) oral once a day, vs vehicle control group (G2), p<0.05",significantly lower
same,Hydroxyproline expression area level,"[1]; 10 mg/kg/day (G3, G4), vs normal control group (G1), p<0.001 or p<0.05",significantly higher
same,Hydroxyproline expression area level,"[1]; 10 mg/kg/day (G3, G4), vs vehicle control group (G2), p<0.001 or p<0.01",significantly lower
same,TCHO level in liver tissue (ELISA),[1]; [6],significantly lower
same,TG level in liver tissue (ELISA),[1]; [6],significantly lower
same,LDL level (blood biochemical test),"[1]; 10 mg/kg/day (G4), vs vehicle control group (G2) and positive control group (G3)",significantly lower
same,oil red O staining area level,"[1]; 10 mg/kg/day (G4), vs vehicle control group",significantly lower
same,ALT level (blood biochemical test),"[1]; 30 mg/kg/day (G5) oral once a day, vs vehicle control group (G2), p<0.001 or p<0.05",significantly lower
same,TCHO level in liver tissue (ELISA),[1]; [7],significantly lower
same,TG level in liver tissue (ELISA),[1]; [7],significantly lower
same,LDL level (blood biochemical test),"[1]; 30 mg/kg/day (G5), vs vehicle control group (G2) and positive control group (G3)",significantly lower
same,relative liver weight level,"[1]; 30 mg/kg/day (G5), vs vehicle control group (G2) and positive control group (G3), p<0.01 or p<0.05",significantly lower
same,Hydroxyproline expression area level,"[1]; 30 mg/kg/day (G5), vs vehicle control group (G2), p<0.001 or p<0.01",significantly lower
same,AST level (blood biochemical test),"[1]; 30 mg/kg/day (G5), vs vehicle control group (G2), p<0.001 or p<0.05",significantly lower
same,liver weight level (absolute),"[1]; 30 mg/kg/day (G5), vs vehicle control group (G2), p<0.05",significantly lower
same,oil red O staining area level,"[1]; 30 mg/kg/day (G5), vs vehicle control group",significantly lower
same,microvesicular steatosis level (histopathology),"[1]; 30 mg/kg/day (G5), vs vehicle control group, p<0.05",significantly lower
same,effect of alleviating non-alcoholic steatohepatitis,"[1]; 30 mg/kg/day, compared to positive control compound",superior
same,"blood biochemistry, liver relative weight, TG and TCHO content in liver tissue, and microvesicular steatosis level","[1]; high dose administration group, vs positive control group",lower than those of the positive control group
same,LDH (FIG. 2),"[1]; high-dose administration group, compared to normal group",concentration similar to that of the normal group
same,levels of inflammation (histopathology),"[1]; test compound administration group, vs vehicle control group",lower levels of inflammation
same,LDH (FIG. 2),"[1]; test compound groups, compared to the positive control group",tends to decrease LDH
same,triglycerides in liver tissue,"[2]; 10 mg/kg/day (G3, G4) oral once a day",statistically significant decrease
same,triglycerides in liver tissue,[2]; 30 mg/kg/day (G5) oral once a day,statistically significant decrease
same,concentration of the liver tissue compared with plasma concentration,[3],higher than the plasma concentration
same,efficacy as therapeutic agent for type 2 diabetes,[4],did not show sufficient efficacy
"CC[C@H]1[C@@H](O)[C@@H]2[C@H](CC[C@]3(C)[C@@H]([C@H](C)CCC(=O)O)CC[C@@H]23)[C@@]2(C)CC[C@@H](O)C[C@@H]12 [OCA, obeticholic acid]",subjects showing stomach pain and fatigue,[5],more than 10%
same,"subjects with side effects like irregular heartbeat, dry skin, constipation, joint pain, peripheral edema, sore throat, thyroid hormone irregularity, rash",[5],about 10%
